Data from patent US12661396B2, “Selective targeting of the TREML1/MD2 interaction by small peptide or protein and its use for vaccine adjuvants” (Ascendo Biotechnology, Inc., priority 2020, dated 2026).

Tests used:
[1] = molecular target: T1, mMD2 (Mus musculus, UniProt Q9JHF9); test: Solid phase binding assay, mMD2 to immobilized mTREML1 stalk; conditions: stalk coated 5 ug/ml; FIG. 3B
T1 sequence (Q9JHF9 19-160): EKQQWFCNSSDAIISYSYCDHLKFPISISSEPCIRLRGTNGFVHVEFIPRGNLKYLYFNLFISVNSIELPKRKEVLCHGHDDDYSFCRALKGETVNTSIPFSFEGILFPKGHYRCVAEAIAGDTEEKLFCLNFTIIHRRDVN
Method: For TREML1 or mTREML1 stalk binding to human or mouse MD2 protein, TREML1 stalk or mTREML1 stalk (5 ug/ml in PBS) was coated separately on a 96-well plate. Recombinant hTLR4, hMD2, hCD14, or mMD2 was each serially diluted and added to the plates. Anti-His tag antibody-HRP was used as a detection antibody to detect the protein binding.

[2] = test system: BMDCs; test: Mouse bone marrow derived dendritic cell maturation (flow cytometry); assay type: cell-based; conditions: FIG. 8
Method: Femurs and tibiae were harvested from female C57BL/6 mice and extra muscle tissues were removed. Bones were disinfected in 70% ethanol, then rinsed with RPMI-1640 medium, and both ends were cut to flush out the bone marrow with RPMI-1640 medium using 26 G needle syringes. To disperse cell clumps, bone marrow suspension was pipetted in-and-out several times and washed twice with RPMI-1640 medium by centrifugation. […] At day 0, after cell counting, the leukocytes were seeded at a concentration of 2×10^6 cells/10 ml R10 medium containing 200 U/ml rmGM-CSF in sterile […] Petri dish and incubated at 37° C. with 5% CO2. At day 3, another 10 ml of R10 medium containing 200 U/ml rmGM-CSF was added. At days 6, one half of the supernatant was taken out and centrifuged to collect cell pellet, which was resuspend in original plate with 10 ml of R10 medium containing 200 U/ml GM-CSF. At day 8, non-adherent cells were collected by gentle pipetting and centrifuged at 300 g for 5 min. To obtain purer dendritic cells, the population of macrophages (F4/80^high) was removed with Anti-F4/80 MicroBeads UltraPure (130-110-443, Miltenyi Biotec, Bergisch Gladbach, Germany) following the manufacturer's instructions. Briefly, cell pellet was resuspended and mixed well in MACS buffer with Anti-F4/80 MicroBeads UltraPure. This mixture was incubated for 15 min in the dark in 4° C. After washing cells with MACS buffer, cells were resuspended in MACS buffer, filtered with 30 μm nylon mesh, and added to the MACS buffer rinsed column to separate F4/80^+ cells. Unlabeled cells were collected and washed with R10 medium. To freeze the cells, cell pellet was counted and resuspended at a concentration 1×10^7 cell in 2 ml CELLBANKER2 (#11891, ZENOAQ) per cryopreservation vial and stored at −80 degree Celsius.
BMDCs were thawed for the DC maturation experiments. These cells were seeded at 1×10^6 cells/2 ml in R10 medium containing 200 U/ml rmGM-CSF in wells of a 6-well tissue culture dish and cultured to recover the cell viability at 37° C. with 5% CO2. After 6 hr, BMDCs were treated with various fragments of mTREML1 protein and cultured in 37° C. with 5% CO2. On the next day, resuspended cells were collected and analyzed by flow cytometry.
Cells were centrifuged at 1800 rpm for 3 min in PBS containing 1% FBS and 0.1% sodium azide (PBSBA), and then divided at a concentration of 1×10^5 cells/100 ul PBSBA in flow tube. Before staining the surface marker of DC, cells were treated with mouse Fc blocker to avoid antibody non-specific binding at room temperature for 30 min. […] After PBSBA washing, samples were analyzed using the CytoFlex flow cytometer with the CytExpert software.

[3] = test system: CT26 colon cancer cells; test: CT26 colon carcinoma model, tumor vaccine with adjuvant; assay type: in vivo, BALB/c mice; conditions: combined with tumor antigen 5E-GP70-15/aluminum mixture, s.c. on days 6 and 13; FIG. 9B
Method: To test TREML1 ECD or its stalk as a vaccine adjuvant or immune booster, we use a CT26 colon carcinoma animal model. […] Briefly, CT26 colon cancer cells (3×10^5 cells) were injected subcutaneously into BALB/c mice on day 0. When the tumor grows to 30-100 mm^3 on day 6, tumor vaccines (tumor antigen 5E-GP70-15/aluminum mixture with or without mouse TREML1 stalk; 100 μL/mouse each time) were injected subcutaneously. The vaccinations were repeated on days 13. Tumor volumes were measured every 3-4 days. […] A DNA vaccine containing the gp70 gene has been used to induce protective immunity against CT26 cells. (J. Takeda et al., “Anti-tumor immunity against CT26 colon tumor in mice immunized with plasmid DNA encoding beta-galactosidase fused to an envelope protein of endogenous retrovirus,” Cell Immunol., (2000), 204(1): 11-18).
For the establishment of syngeneic murine colon cancer models, BALB/c mice were subcutaneously injected in the back with 3×10^5 CT26 cells per mouse. When the volume of the inoculated tumor reached 30-100 mm^3, mice were randomly divided into cohorts for different treatments. […] During each animal study, tumor dimensions were monitored with caliper measurements, and the tumor volumes were calculated using the equation: […], wherein length is the longest diameter of the tumor and the width is the shortest diameter. […]

mTREML1 stalk: mouse TREML1 stalk polypeptide, SEQ ID NO:4, EGEEAEDEKETYRIGTGSLLEDPSLDPSASAGPHEFRRRENSIP, chemically synthesized (listed as Mus musculus)
mouse MD2 binding to immobilized mTREML1 stalk [1]: can bind to the immobilized TREML1 stalk and mTREML1 stalk
dendritic cell maturation effect compared with TNF-α [2]: significantly stronger than those of TNF-α
dendritic cell maturation (DC maturation markers CD40, CD86, CD80, MHC II) ([2]; analyzed the next day): can trigger dendritic cell maturation
tumor volume, vaccine with mTREML1 stalk as adjuvant [3]: dramatic reduction in the tumor volumes
